This assay has as its target AlaI (Streptomyces alanosinicus, UniProt A0A6H1Z626). In words: co-purification with the enzyme. It is filed as binding. The conditions noted are these: 10 uM FAD also added in assay; pH 8.0.

`Cc1cc2nc3c(=O)[nH]c(=O)nc-3n(C[C@H](O)[C@H](O)[C@H](O)COP(=O)(O)OP(=O)(O)OC[C@H]3O[C@@H](n4cnc5c(N)ncnc54)[C@H](O)[C@@H]3O)c2cc1C` [FAD]: the “co-purification with the enzyme” value is “AlaI purified with FAD, hence we still observed activity without exogenous FAD added”.
